Measured values as given in US6451334B2, “Compositions and administration of compositions for the treatment of blood disorders” (priority 1997, dated 2002).
“Also recorded” adds a separate entry of the source. Where two headings read alike, the source gives them in different places.

Tests used:
[1] = test system: Mononuclear cells from patients with sickle cell disease or thalassemia trait; test: Erythroid colony (BFU-E) cultures in methylcellulose; assay type: cell-based, human; details: 0.2-0.5 mM, optimal growth factors; for % Increase over control: BFU-E
Description: Mononuclear cells from patients with sickle cell disease or thalassemia trait were isolated on Ficoll Hypague, washed, and cultured in methylcellulose media with optimal concentrations of hematopoietic growth factors IL-3, GM-CSF, Stem Cell Factor, IL6, 3 U/ml Eiythropoietin, insulin, bovine serum albumin, and 0.2-0.5 mM concentrations of test compounds of derivatives of cinnamic acid and hydrocinnamic acid. […] The following illustrates some representative cultures: […]

K562 cells = test: Treatment of K562 cells and analysis of globin mRNA by primer extension; assay type: cell-based, human; details: for fold induction at 1000 µM: Homo sapiens, K562, 72 h, read-out: increase in γ-globin mRNA over constitutive levels in untreated control K562 cells; for stimulating γ globin compared to control cells (ranking in words) / Radioactivity Alpha Globin (α) mRNA / Radioactivity Fetal Globin (γ) mRNA / γ/α: K562 cells; for pattern of globin gene stimulation in K562 cells: α and γ globin mRNA; for Radioactivity Alpha Globin (α) mRNA / Radioactivity Fetal Globin (γ) mRNA: phosphorimager; for γ/α: ratio of globin mRNA radioactivity
Description: K562 cells kindly provided by Dr. George Atweh were cultured with 10% fetal bovine serum (Sigma, St. Louis, Mo.) and RPMI media (Grand Island Biological Company, Grand Island, N.Y.) in a humidified atmosphere with 5% CO2/95% air. Compounds were tested at a final concentration of 1 mM at neutral pH and included butyric acid, phenoxyacetic acid, dimethylbutric acid, alpha-methylhydrocionamic acid, 2,3, and 4-methoxyhydrocinnamic acid, dihydrocinnamic acid, methoxycinnamic acid, methoxyacetic acid, phenylpropionic acid, amino hydrocinnamic acid, DL β- and DL-βamino-n-butyric acid, cinnamic acid, and 2 methylhydrocinnamic acid (Aldrich Chemical Company, St. Louis, Mo.). Additional compounds studied included dimethylhydroxy acetic acid, dimethylpropionic acid, dimethylphenoxyacetic acid, and dimethylmethoxyacetic acid. After three days of culture with these agents, mRNA was purified and α, β, and γ globin mRNA was analyzed by primer extension using oligonucleotide primers and quantitation on a PhosphoImager as previously described.

32D cells = test: Proliferation studies using 32D cells at low IL-3; assay type: cell-based, murine; details: 0.5 U/ml IL-3, 1 mM; listed as butyrate
Description: 32D cells were cultured in RPMI media with 10% fetal bovine serum (Sigma, St. Louis, Mo.), […] glutamine (GIBCO), and murine IL3 (20 U/ml) (Biosource International). Growth factor controls used included the standard concentration of IL-3 required for proliferation of these cells (25 U/ml) and a 50-fold lower concentration (0.5 U/ml), and erythropoietin (3 U/ml) or G-CSF ( U/ml), (Amgen, Thousand Oaks, Calif.). The test compounds were added at final concentrations of 1 mM. As a cell density of 2.5−10×10^5 is necessary for growth of this cell line, this density was maintained by passing the cells at three day intervals or by concentrating the cells when apoptosis occurred. Proportions of cells which were viable or apoptotic, and the fraction of cells in each part of the cell cycle was assessed by incubating the cells with Trypan blue and enumeration, and with propidium iodide incubation and FACScan analysis as previously described.
The effects of the representative compounds which have been synthesized or selected for resistance to beta oxidative metabolism and glucuronidation in stimulating γ globin gene expression in a human erythroid-like cell line and for their effects on cell growth utilizing a multi-lineage murine hematopoietic cell line, 32D. This cell line is dependent on high concentrations of IL-3 for growth. […]

[2] = test system: mice transgenic for a human beta globin locus YAC containing a silenced gamma globin gene; test: In vivo experiments in mice transgenic for the human beta globin gene locus
Description: Three prototype compounds, methylhydrocinnamic acid (MHCA), phenoxyacetic acid (PAA), and dimethylbutyric acid PMB), were administered at doses from 100 to 250 mg/kg in two daily doses by intraperitoneal injection to mice transgenic for a human beta globin locus YAC containing a silenced gamma globin gene. Reticulocytes, newly synthesized red blood cells, were counted daily and non-alpha globin in MRNA was analyzed by Rnase protection. Only 50 microliters of blood were removed daily for testing. A 5 to 10-fold increase in reticulocytes and a 1.7-2.4 fold increase in gamma globin mRNA was observed within one week of therapy with the three protype compounds. In contrast, control mice to which normal saline was administered, with the same degree of phlebotomy for testing, had no significant changes in reticulocytes or globin in mRNA.

cell viability = test: DNA fragmentation assays (cell viability); assay type: cell-based
Text: Normal cell viability, the viability of an untransformed or uninfected cell, can be determined from analyzing the effects of the composition on one or more biological processes of the cell. Detrimental interference with one or more of these cellular processes becomes significant when the process becomes abnormal. Examples of quantitatable and qualifiable biological processes include the processes of cell division, protein synthesis, nucleic acid (DNA or RNA) synthesis, nucleic acid (principally DNA) fragmentation and apoptosis. Others processes include specific enzyme activities, the activities of the cellular transportation systems such as the transportation of amino acids by system A (neutral), system B (acidic) or system C (basic), and the expression of a cell surface protein. […] Abnormal cell division, for example, can be mitosis which occurs too rapidly, as in a malignancy, or unstably, resulting in programmed cell death or apoptosis, detected by increased DNA degradation. The determination of abnormal cell viability can be made on comparison with untreated control cells. […] Increased cell viability can be determined by those of ordinary skill in the art using, for example, DNA fragmentation analysis. […] Determinations of increased or decreased viability can also be concluded from an analysis of the results of multiple different assays. Where multiple tests provide conflicting results, accurate conclusions can still be drawn by those of ordinary skill based upon the cell type, the correctness or correlation of the tests with actual conditions and the type of composition.

[3] = test system: system A transport of amino acids; test: System A transport of amino acids; assay type: cell-based
Text: Normal cell viability, the viability of an untransformed or uninfected cell, can be determined from analyzing the effects of the composition on one or more biological processes of the cell. Detrimental interference with one or more of these cellular processes becomes significant when the process becomes abnormal. Examples of quantitatable and qualifiable biological processes include the processes of cell division, protein synthesis, nucleic acid (DNA or RNA) synthesis, nucleic acid (principally DNA) fragmentation and apoptosis. Others processes include specific enzyme activities, the activities of the cellular transportation systems such as the transportation of amino acids by system A (neutral), system B (acidic) or system C (basic), and the expression of a cell surface protein. […] Abnormal cell division, for example, can be mitosis which occurs too rapidly, as in a malignancy, or unstably, resulting in programmed cell death or apoptosis, detected by increased DNA degradation. The determination of abnormal cell viability can be made on comparison with untreated control cells. Compositions preferably increase normal cell viability. Increased cell viability can be determined by those of ordinary skill in the art using, for example, DNA fragmentation analysis. […]

in vivo = details: monkey, po
Description: Chronic indwelling venous and arterial catheters which were maintained using sterile technique for blood sampling. Compounds were administered by nasogastric tube and blood was collected to determine drug plasma levels at regular intervals following single oral doses. […] The test compounds were analyzed after ether extraction of the plasma, separation by HPLC, and quantitated by comparison to a spilled internal standard of heptanoic acid according to previously described methods.

[4] = test system: c-myb, c-myc, actin, and histone H3; test: Northern blots of growth related genes in 32D cells; assay type: cell-based, murine; details: low IL-3, 1 mM, Northern blot
Description: Cell proliferation stimulation is transgenic mice, baboons, human cell culture, and a murine multi-lineage cell line by the active compounds, genes whose expression is increased early in cell proliferation induced by hematopoietic growth factors such as IL-3 and erythropoietin were examined. RNA was extracted from 32D cells treated with the compounds for one day and for 11 days. Northern blots were prepared with probes for the early growth related genes c-myb and c-myc and beta actin and histone H3 were used as controls. Increased expression of c-myb occurs transiently, and early, when growth is induced by erythropoietin and IL-3.
The first lane is from cells cultured in no IL-3, lane 2 in 25 U/ml murine IL3 and lanes 3-18 have low IL-3 concentration (0.5 U/ml) plus test compounds. […] All compounds were tested here at 1 mM. […] 20 ug of total RNA from each sample were subjected to Northern blot analysis using specific probes for c-myb, c-myc, actin, and histone H3. One day and 11-day samples from the same treated cells were quantitated by PhosphoImager.

[5] = primer extension, 1 mM, three days of culture, FIG. 1

For `COc1ccc(C=CC(=O)O)cc1` [4 Methoxycinnamic acid], the “Mean BFU-E/culture 4 cultures averaged (per 0.2 million cells)” value [1] was 191 and the “% Increase over control” value [1] was 8.5%.
In the case of `CCCC(=O)O` [Butyric acid, butyric acid, reference compound], the fold induction at 1000 µM (K562 cells; [5]) is reported as 2, the “stimulating γ globin compared to control cells (ranking in words)” value (K562 cells; 1 mM) is reported as “most active” and the “pattern of globin gene stimulation in K562 cells” value (shortened to “pattern”) (K562 cells) is reported as “stimulated expression of both α and γ globin MRNA”. For the same molecule, the “effect on 32D cells with low IL-3” value (32D cells) was “decreased cell proliferation and cell death; also recorded: Cells die”.
For `O=C(O)COc1ccccc1` [PAA, phenoxyacetic acid], the fold induction at 1000 µM (K562 cells) was 2.4 to 26, the “stimulating γ globin compared to control cells (ranking in words)” value (K562 cells; 1 mM) was “most active” and the “Radioactivity Alpha Globin (α) mRNA” value (K562 cells; 1 mM) was 507148. The “Radioactivity Fetal Globin (γ) mRNA” value (K562 cells; 1 mM) was 2755891, the γ/α (K562 cells; 1 mM) was 5.4 and the “pattern” value (K562 cells) was “stimulated expression of both α and γ globin MRNA”. The “Reticulocytes (fold increase)” value ([2]; 100 to 250 mg/kg in two daily doses, intraperitoneal, within one week) was 2.5 to 7 fold, the “cell viability / DNA fragmentation” value (cell viability) was “reduce DNA fragmentation” and the “system A transport of amino acids” value [3] was “do not significantly alter”. The half-life (in vivo) was 6.5 h.
Work on `NC(CC(=O)O)c1ccccc1` (stereo not drawn) [ST 30, β-aminohydrocinnamic acid] yielded a c-myb induced [4] of 2 fold.
With `COc1ccccc1C=CC(=O)O` [ST 32, 2-methoxycinnamic acid] the fold induction at 1000 µM (K562 cells; [5]) was 2.4 to 26, the “stimulating γ globin compared to control cells (ranking in words)” value (K562 cells; 1 mM) was “most active” and the “Radioactivity Alpha Globin (α) mRNA” value (K562 cells; 1 mM) was 36751. For the same molecule, the “Radioactivity Fetal Globin (γ) mRNA” value (K562 cells; 1 mM) was 957146 and the γ/α (K562 cells; 1 mM) was 26.0.
In the case of `Cc1ccccc1CCC(=O)O` [ST 33, 2 methyl hydrocinnamic acid], the fold induction at 1000 µM (K562 cells; [5]) is reported as 2.4 to 26, the “stimulating γ globin compared to control cells (ranking in words)” value (K562 cells; 1 mM) is reported as “most active” and the “Radioactivity Alpha Globin (α) mRNA” value (K562 cells; 1 mM) is reported as 89473. The “Radioactivity Fetal Globin (γ) mRNA” value (K562 cells; 1 mM) was 1388899, the γ/α (K562 cells; 1 mM) was 15.5 and the “Mean BFU-E/culture 4 cultures averaged (per 0.2 million cells)” value [1] was 212. For the same molecule, the “% Increase over control” value [1] was 20.5%.
For `COc1ccccc1/C=C\C(=O)O` [ST 34, cis-2-methoxycinnamic acid], the fold induction at 1000 µM (K562 cells; [5]) was 2.4 to 26, the “Radioactivity Alpha Globin (α) mRNA” value (K562 cells; 1 mM) was 105452 and the “Radioactivity Fetal Globin (γ) mRNA” value (K562 cells; 1 mM) was 2255627. The γ/α (K562 cells; 1 mM) was 21.4 and the “pattern” value (K562 cells) was “decreased expression of α globin”.
In the case of `COc1ccc(CC(=O)O)cc1OC` [ST 37, 3,4 dimethoxy phenyl acetic acid], the fold induction at 1000 µM (K562 cells; [5]) is reported as 2.4 to 26, the “Radioactivity Alpha Globin (α) mRNA” value (K562 cells; 1 mM) is reported as 106875 and the “Radioactivity Fetal Globin (γ) mRNA” value (K562 cells; 1 mM) is reported as 1206529. The γ/α (K562 cells; 1 mM) was 11.3.
For `COc1ccc(CCC(=O)O)cc1OC` [ST 38, 3-3,4-dimethoxy phenyl propionic acid], the “Radioactivity Alpha Globin (α) mRNA” value (K562 cells; 1 mM) was 191985, the “Radioactivity Fetal Globin (γ) mRNA” value (K562 cells; 1 mM) was 1858358 and the γ/α (K562 cells; 1 mM) was 9.7.
With `COc1ccc(OC)c(CC(=O)O)c1` [ST 40, 2,5 {dimethoxy phenyl} acetic acid] the “Radioactivity Alpha Globin (α) mRNA” value (K562 cells; 1 mM) was 85941, the “Radioactivity Fetal Globin (γ) mRNA” value (K562 cells; 1 mM) was 1240100 and the γ/α (K562 cells; 1 mM) was 14.4.
In the case of `COc1cc(C=CC(=O)O)cc(OC)c1O` [ST 44, 3,5 dimethoxy 4-hydroxy cinnamic acid], the fold induction at 1000 µM (K562 cells; [5]) is reported as 2.4 to 26, the “Mean BFU-E/culture 4 cultures averaged (per 0.2 million cells)” value [1] is reported as 215 and the “% Increase over control” value [1] is reported as 11%.
In the case of `O=C(O)/C=C/c1ccccc1` [ST 47, transcinnamic acid], the fold induction at 1000 µM (K562 cells; [5]) is reported as 2.4 to 26, the “Mean BFU-E/culture 4 cultures averaged (per 0.2 million cells)” value [1] is reported as 322 and the “% Increase over control” value [1] is reported as 18%.
In the case of `CCC(N)C(=O)O` (stereo not drawn) [alpha amino-n-butyric acid, reference compound], the “inducibility of gamma (fetal) globin in the transgenic mice” value ([2]; mouse, in vivo) is reported as “has not been readily inducible”.
For `CCCC(=O)OCC` [butyric acid ethyl ester], the “cell viability / DNA fragmentation” value (cell viability) was “reduce DNA fragmentation”.
For `CC(C)C(N)=O` [isobutyramide, reference compound], the “cell viability / DNA fragmentation” value (cell viability) was “decrease cell viability”.
